As a reminder, the Vd is the apparent volume that relates the amount in the body to the concentration in plasma or blood. The low end stands for little distribution into tissue, the high end for wide distribution into tissue. As a reminder, the bioavailability is dose-corrected exposure relative to a reference, in per cent. A higher bioavailability goes with good availability.

Data set [1] is described as follows: Elimination half life in healthy Homo sapiens (human). In kind it is ADME, organism-based. As to conditions: in vivo, read-out: beta t1/2 (converted).
A short description of data set [2]: Renal clearance in healthy Homo sapiens (human). In kind it is ADME, organism-based, Kidney. As to conditions: in vivo.
The nature of data set [3]: Volume of distribution in Homo sapiens (human). As to conditions: in vivo. In kind it is ADME, organism-based.
Another data set is filed under the species Homo sapiens. The data set can be described thus: Distribution half life in Homo sapiens (human). It is filed as ADME, organism-based. As to conditions: in vivo.
Data set [4] can be described thus: Oral bioavailability in older Homo sapiens (human) individuals at 1 mg. In kind it is ADME, organism-based. As to conditions: in vivo.
A short description of data set [5]: Oral bioavailability in healthy Homo sapiens (human) at 1 mg. It is filed as ADME, organism-based. As to conditions: in vivo.

For `COc1cc2c(c(OC)c1OC)-c1ccc(OC)c(=O)cc1[C@@H](NC(C)=O)CC2` [COLCHICINE], the half-life in data set [1] was 14 h. This compound gave a CL renal in data set [2] of 66.7 mL/min. In addition, in data set [3], the distribution volume (Vd) is 7 L/kg. Further, the alphat1/2 in the data set listed under Homo sapiens came out at 1 h. In addition, the bioavailability in data set [4] and in data set [5] was 45% in each case.

The values above are taken from ChEMBL document CHEMBL3044549, “Colchicine and its various physicochemical and biological aspects” (Med Chem Res, 2013).
